1 compound from patent publication US20250009763A1, “METHODS FOR EXTENDING LIFESPAN AND/OR DELAYING AGING” (priority 2023, published 2025) can be followed below.

The test system of one assay is HUVECs. The assay is described as follows: Population doubling (PD) assay. The class given is cell-based, human. The following applies: 1 or 2 μM; FIG. 3A. The procedure: For the population doubling (PD) assay, HUVECs (1×10^5 cells/3.5 cm dish) were propagated in the presence of DMSO (i.e., control) or PN6 (1 or 2 μM) until senescence (Day 41), and the cell numbers in each passage were recorded to generate a growth curve that represented the cumulative population doubling. The population doubling levels (PDLs) of HUVECs were calculated in every culture to indicate the proliferation capacity of HUVECs under the respective conditions. The population doublings (PDs) were estimated using the equation: PDL=3.32 (log (total viable cells at harvest/total viable cells at seeding). Also, HUVECs at passages PDL4 and PDL11 cultured in 0 μM (i.e., DMSO alone), 1 μM, or 2 μM PN6 were harvested for further analyses (e.g., western blot and SA-β-gal staining).

Assay [1] relates to intracellular NAD^+ of WT yeast cells (BY4741). The experiment in a line: Intracellular NAD^+ content. It counts as cell-based, Saccharomyces cerevisiae. The following applies: 25 μM, 2 hours; FIG. 2B. As for the experimental part:
WT yeast cells (BY4741; […] per group) were incubated in the presence of DMSO (control) or PN6 (25 μM), or cultured in YEPD medium adjusted to CR 0.1%, for 2 hours, before being harvested. The harvested cells were extracted with 250 μl of 1 M glacial formic acid saturated with butanol, incubated for 30 minutes on ice. Then, 62.5 μl of 100% trichloroacetic acid (TCA) (w/v) was added to each sample, and the samples were incubated on ice for an additional 15 minutes. The samples were pelleted by centrifugation at 17,000×g and 4° C. for 5 minutes, and the supernatant was transferred to another eppendorf tube. […]
For analysis, each supernatant or standard sample was divided into two sets: the control set and the test set (150 μl per set), each of which was assembled with an alcohol dehydrogenase (ADH) reaction buffer (345 μl, containing 360 mM Tris (pH 9.7), 240 mM lysine, 0.24% (v/v) EtOH). […] After incubation at room temperature for 10 minutes, the absorbance at 340 nm of each sample was measured by a microplate reader. To determine the NAD^+ levels in each supernatant or standard sample, the absorbance values of the test set (the ADH catalytic set) were divided by the corresponding values of the control set (the water set), which represented the basal NADH levels.

Take `CCC(CC[C@@H](C)C1CCC2C3CC(=O)[C@H]4C[C@@H](O)CC[C@]4(C)C3CC[C@@]21C)C(C)C` (stereo in doubt) [PN6, (24S)-3β-hydroxy-5α-stigmastan-6-one]: the “population doubling level (PDL) of HUVECs” value in the assay with HUVECs is “increase the PDL”. Also, in assay [1], the “NAD^+ content of yeast” value is on record as “significantly increased”.
